Target: T1, GST-Aurora A (Homo sapiens, UniProt O14965)
T1 construct: N-terminal GST fusion with full length Aurora A (1-403 amino acids); purchased Carna Biosciences 05-101
T1 sequence (O14965 1-403): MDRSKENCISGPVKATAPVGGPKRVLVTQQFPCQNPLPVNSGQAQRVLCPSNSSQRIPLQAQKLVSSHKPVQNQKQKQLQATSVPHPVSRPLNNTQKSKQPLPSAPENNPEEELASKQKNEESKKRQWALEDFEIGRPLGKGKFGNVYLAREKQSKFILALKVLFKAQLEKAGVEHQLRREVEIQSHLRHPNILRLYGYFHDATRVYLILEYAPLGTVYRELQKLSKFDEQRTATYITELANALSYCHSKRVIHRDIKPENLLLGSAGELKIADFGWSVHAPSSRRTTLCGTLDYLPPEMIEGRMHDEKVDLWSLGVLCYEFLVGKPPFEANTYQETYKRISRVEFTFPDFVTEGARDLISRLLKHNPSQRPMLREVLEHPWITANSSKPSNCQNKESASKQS
Experiment: Aurora A IC50, Caliper LC3000 mobility shift assay
Type: biochemical
Conditions: LC3000 method; 15 uM ATP (the KM value); read-out: Aurora Kinase A Activity (IC50)
Method in brief: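 Readout: percent conversion of FITC-LRRASLG (1 uM) to phosphopeptide, resolved electrophoretically on a Caliper LC3000, fitted against inhibitor concentration for IC50. Reaction: N-terminal GST full-length Aurora A, ATP at its KM (15 uM), pH 7.5 HEPES with MgCl2/DTT, 25 C for 90 min.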

SMILES	IC50
COc1cc2c(=O)[nH]c3nccc(Nc4ccc(NC(=O)c5ccc(F)cc5C(F)(F)F)cc4)c3c2cc1OC [Compound 416, 4-Fluoro-N-[4-(8,9-dimethoxy-6-oxo-5,6-dihydro-benzo[c][1,8]naphthyridin-1-ylamino)-phenyl]-2-trifluoromethyl-benzamide]	< 11 nM
O=C(Nc1ccc(Nc2ccnc3[nH]c(=O)c4ccc(F)cc4c23)cc1)c1ccc(F)c(F)c1 [Compound 417, 3,4-Difluoro-N-[4-(9-fluoro-6-oxo-5,6-dihydro-benzo[c][1,8]naphthyridin-1-ylamino)-phenyl]-benzamide]	< 11 nM
O=C(Nc1ccc(Nc2ccnc3[nH]c(=O)c4ccc(F)cc4c23)cc1)c1cccc(F)c1F [Compound 418, 2,3-Difluoro-N-[4-(9-fluoro-6-oxo-5,6-dihydro-benzo[c][1,8]naphthyridin-1-ylamino)-phenyl]-benzamide]	< 11 nM
O=C(Nc1ccc(Nc2ccnc3[nH]c(=O)c4ccc(F)cc4c23)cc1)c1ccc(F)cc1 [Compound 419, 4-Fluoro-N-[4-(9-fluoro-6-oxo-5,6-dihydro-benzo[c][1,8]naphthyridin-1-ylamino)-phenyl]-benzamide]	< 11 nM
O=C(Nc1ccc(Nc2ccnc3[nH]c(=O)c4ccc(F)cc4c23)c(F)c1)c1ccc(F)cc1C(F)(F)F [Compound 420, 4-Fluoro-N-[3-fluoro-4-(9-fluoro-6-oxo-5,6-dihydro-benzo[c][1,8]naphthyridin-1-ylamino)-phenyl]-2-trifluoromethyl-benzamide]	< 11 nM
O=C(Cn1cc(Nc2ccnc3[nH]c(=O)c4ccc(F)cc4c23)cn1)Nc1ccc(F)cc1 [Compound 421]	11 to 100 nM
O=C(Cn1cc(Nc2ccnc3[nH]c(=O)c4ccc(F)cc4c23)cn1)Nc1ccc(C(F)(F)F)cc1 [Compound 422]	11 to 100 nM
CCOC(=O)c1cccc2c1c(=O)[nH]c1nccc(Nc3ccc(NC(=O)c4ccccc4)cc3)c12 [Compound 423, 1-[4-Benzoylamino-phenylamino)-6-oxo-5,6-dihydro-benzo[c][1,8]naphthyridin-7-carboxylic acid ethyl ester]	< 11 nM
O=C(Cn1cc(Nc2ccnc3[nH]c(=O)c4ccccc4c23)cn1)Nc1ccc(F)cc1 [Compound 430]	> 100 nM
O=C(Cn1cc(Nc2ccnc3[nH]c(=O)c4ccccc4c23)cn1)Nc1ccc(C(F)(F)F)cc1 [Compound 431]	> 100 nM
O=C(Nc1ccc(Nc2ccnc3[nH]c(=O)c4ccccc4c23)cc1)c1cccc(F)c1F [Compound 432, 2,3-Difluoro-N-[4-(6-oxo-5,6-dihydro-benzo[c][1,8]naphthyridin-1-ylamino)-phenyl]-benzamide]	< 11 nM
O=C(Nc1ccc(Nc2ccnc3[nH]c(=O)c4ccccc4c23)cc1)c1cccc2c1OCC2 [Compound 433, 2,3-Dihydro-benzofuran-7-carboxylic acid [4-(6-oxo-5,6-dihydro-benzo[c][1,8]naphthyridin-1-ylamino)-phenyl]-amide]	11 to 100 nM
O=C(Nc1ccc(Nc2ccnc3[nH]c(=O)c4c(C(=O)O)cccc4c23)cc1)c1ccccc1 [Compound 434, 1-[4-Benzoylamino-phenylamino)-6-oxo-5,6-dihydro-benzo[c][1,8]naphthyridin-7-carboxylic acid]	11 to 100 nM
CN(C)CCNC(=O)c1cccc2c1c(=O)[nH]c1nccc(Nc3ccc(NC(=O)c4ccccc4)cc3)c12 [Compound 435, 1-[4-Benzoylamino-phenylamino)-6-oxo-5,6-dihydro-benzo[c][1,8]naphthyridin-7-carboxylic acid 2-dimethylamino-ethyl amide]	< 11 nM
CN(C)CCCNC(=O)c1cccc2c1c(=O)[nH]c1nccc(Nc3ccc(NC(=O)c4ccccc4)cc3)c12 [Compound 436, 1-(4-Benzoylamino-phenylamino)-6-oxo-5,6-dihydro-benzo[c][1,8]naphthyridine-7-carboxylic acid (3-dimethylamino-propyl)-amide]	11 to 100 nM
O=C(Nc1ccc(Nc2ccnc3[nH]c(=O)c4c(C(=O)NCCCN5CCOCC5)cccc4c23)cc1)c1ccccc1 [Compound 437, 1-[4-Benzoylamino-phenylamino)-6-oxo-5,6-dihydro-benzo[c][1,8]naphthyridin-7-carboxylic acid 3-morpholin-4-yl-propyl amide]	< 11 nM
O=C(Nc1ccc(Nc2ccnc3[nH]c(=O)c4c(C(=O)NCCO)cccc4c23)cc1)c1ccccc1 [Compound 438, 1-[4-Benzoylamino-phenylamino)-6-oxo-5,6-dihydro-benzo[c][1,8]naphthyridin-7-carboxylic acid 2-hydroxy ethyl amide]	< 11 nM
O=C(Nc1ccc(Nc2ccnc3[nH]c(=O)c4c(C(=O)O)cccc4c23)cc1)c1ccc(F)cc1C(F)(F)F [Compound 439, 1-[4-(4-Fluoro-2-trifluoromethyl-benzoylamino)-phenylamino)-6-oxo-5,6-dihydro-benzo[c][1,8]naphthyridin-7-carboxylic acid]	< 11 nM
CN(C)CCNC(=O)c1cccc2c1c(=O)[nH]c1nccc(Nc3ccc(NC(=O)c4ccc(F)cc4C(F)(F)F)cc3)c12 [Compound 440, 1-[4-(4-Fluoro-2-trifluoromethyl-benzoylamino)-phenylamino)-6-oxo-5,6-dihydro-benzo[c][1,8]naphthyridin-7-carboxylic acid 2-dimethylamino-ethyl amide]	< 11 nM

Next, values leading:

IC50	SMILES
< 11 nM	CN(C)CCCNC(=O)c1cccc2c1c(=O)[nH]c1nccc(Nc3ccc(NC(=O)c4ccc(F)cc4C(F)(F)F)cc3)c12 [Compound 441]
< 11 nM	O=C(Nc1ccc(Nc2ccnc3[nH]c(=O)c4c(C(=O)NCCN5CCOCC5)cccc4c23)cc1)c1ccc(F)cc1C(F)(F)F [Compound 442, 1-[4-(4-Fluoro-2-trifluoromethyl-benzoylamino)-phenylamino]-6-oxo-5,6-dihydro-benzo[c][1,8]naphthyridine-7-carboxylic acid (2-morpholin-4-yl-ethyl)-amide]
< 11 nM	O=C(Nc1ccc(Nc2ccnc3[nH]c(=O)c4c(C(=O)NCCCN5CCOCC5)cccc4c23)cc1)c1ccc(F)cc1C(F)(F)F [Compound 443, 1-[4-(4-Fluoro-2-trifluoromethyl-benzoylamino)-phenylamino)-6-oxo-5,6-dihydro-benzo[c][1,8]naphthyridin-7-carboxylic acid 3-morpholin-4-yl-propyl amide]
< 11 nM	O=C(Nc1ccc(Nc2ccnc3[nH]c(=O)c4c(C(=O)NCCO)cccc4c23)cc1)c1ccc(F)cc1C(F)(F)F [Compound 444, 1-[4-(4-Fluoro-2-trifluoromethyl-benzoylamino)-phenylamino)-6-oxo-5,6-dihydro-benzo[c][1,8]naphthyridin-7-carboxylic acid 2-hydroxy ethyl amide]
11 to 100 nM	O=C(Nc1ccc(Nc2ccnc3[nH]c(=O)c4c(O)cccc4c23)cc1)c1ccc(F)cc1C(F)(F)F [Compound 445, 4-Fluoro-N-[4-(7-hydroxy-6-oxo-5,6-dihydro-benzo[c][1,8]naphthyridin-1-ylamino)-phenyl]-2-trifluoromethyl-benzamide]
11 to 100 nM	O=C(Nc1ccc(Nc2ccnc3[nH]c(=O)c4c(O)cccc4c23)cc1)c1ccccc1 [Compound 446, N-[4-(7-Hydroxy-6-oxo-5,6-dihydro-benzo[c][1,8]naphthyridin-1-ylamino)-phenyl]-benzamide]
11 to 100 nM	O=C(Nc1ccc(Nc2ccnc3[nH]c(=O)c4c(OCCN5CCOCC5)cccc4c23)cc1)c1ccccc1 [Compound 447]
> 100 nM	CCN(Cc1ccccc1)c1ccc2c(=O)[nH]c3ncccc3c2c1 [Compound 449, 9-(Benzyl(ethyl)amino)benzo[c][1,8]naphthyridin-6(5H)-one]
> 100 nM	O=c1[nH]c2ncccc2c2cc(NCc3ccc(Cl)cc3)ccc12 [Compound 452, 9-(4-Chlorobenzylamino)benzo[c][1,8]naphthyridin-6(5H)-one]
> 100 nM	CCOC(=O)CCCNc1ccc2c(=O)[nH]c3ncccc3c2c1 [Compound 460, Ethyl 4-(6-oxo-5,6-dihydrobenzo[c][1,8]naphthyridin-9-ylamino)butanoate]
> 100 nM	O=c1[nH]c2ncccc2c2cc(NCc3c(F)cccc3C(F)(F)F)ccc12 [Compound 461, 9-(2-Fluoro-6-(trifluoromethyl)benzylamino)benzo[c][1,8]naphthyridin-6(5H)-one]
> 100 nM	N#Cc1ccccc1CNc1ccc2c(=O)[nH]c3ncccc3c2c1 [Compound 462, 2-((6-oxo-5,6-dihydrobenzo[c][1,8]naphthyridin-9-ylamino)methyl)benzonitrile]
> 100 nM	N#Cc1cccc(CNc2ccc3c(=O)[nH]c4ncccc4c3c2)c1 [Compound 463, 3-((6-Oxo-5,6-dihydrobenzo[c][1,8]naphthyridin-9-ylamino)methyl)benzonitrile]
> 100 nM	O=c1[nH]c2ncccc2c2cc(NCc3ccc(F)cc3C(F)(F)F)ccc12 [Compound 464, 9-(4-Fluoro-2-(trifluoromethyl)benzylamino)benzo[c][1,8]naphthyridin-6(5H)-one]
> 100 nM	O=c1[nH]c2ncccc2c2cc(NCc3cccc([N+](=O)[O-])c3)ccc12 [Compound 465, 9-(3-Nitrobenzylamino)benzo[c][1,8]naphthyridin-6(5H)-one]

— patent US8735584B2 (Merck Patent GmbH, priority 2008, dated 2014)
